Legend:
[1] = system: LPS-induced TNFα in monocyte-derived macrophages; assay: MdM assay: LPS-triggered TNFα (ELISA); format: cell-based, human; details: Macrophage; human MdM; LPS 200 ng/mL; supernatant after 20 h; inhibition of TNFα; read-out: TNFα EC50
Method: This assay evaluates illustrative compounds of the invention for their inhibition of LPS-induced TNFα and LPS triggered IL-10 secretion in monocyte-derived macrophages. PBMCs are isolated from human blood samples (buffycoats). The buffy coat is aseptically transferred into a 50 mL Falcon tube, and diluted 1/2 in PBS. Falcon tubes are filled with 20 mL LymphoprepTM, on top of which 25 mL of the buffy coat is carefully added, tubes are centrifuged for 35 min at 400 g in temperature controlled centrifuge, without brake, at 25° C. PBMCs are aspirated from the white interface layer between sample and LymphoprepTM. PBMCs are washed five times in PBS. […] PBMCs are centrifuged at 300×g for 10 min and resuspended at a density of 1.0*10^7 cells/80 μL Miltenyi buffer (PBS, pH 7.4, 1% FBS, 2 mM EDTA). Starting from this point of the protocol all steps are performed on ice. 20 μL of CD14+ micro-beads are added per 1.0*10^7 cells, the tube is mixed and incubated for 15 min in the fridge at 4° C. Cell suspension volume is adjusted to total volume of 100 mL using Miltenyi buffer, mixed gently and subsequently centrifuged for 10 min at 300×g. Supernatant is discarded and cell pellet is resuspended in 12 mL of Miltenyi buffer. Four LS columns are placed in the MACS Separator (magnet) from Miltenyi Biotec, and are prewet by rinsing with 3 mL of MACS buffer per column. Three mL of cell suspension is added onto the column (max 1*10^8 of labelled cells/column), and columns are subsequently washed 3 times with 3 mL of Miltenyi buffer. The columns are removed from the magnets, and 5 mL of Miltenyi buffer are added to the column to flush out the CD14+ fraction by pushing the plunger into the column. The flushed fractions are collected in a fresh 50 mL Falcon and volume is adjusted to 30 mL using Miltenyi buffer, cells are centrifuged for 10 min at 300×g. The obtained cell pellet is resuspended in 10 mL RPMI w/o FBS, and cell density is determined using a hematologic analyser (Sysmex XS-500i). […] On day 10, MdMs are triggered and compound is added. A compound dilution plate is made in 100% DMSO by 3-fold dilution of 10 mM stock solution. An intermediate dilution plate (10× final concentration) is made by diluting the compound dilution plate […] in RPMI medium. Medium is carefully removed from cell plates using multichannel pipette, and replaced by 80 μL fresh medium. 10 μL of the 10× final concentration compound is added to the cells and incubated for 1 hour at 37° C. before addition of trigger. No trigger conditions/trigger conditions are spiked with equal final DMSO concentrations of 0.2% DMSO. 10 μL of 10×LPS (final conc. 200 ng/mL) solution are added to all wells except for the 'no trigger wells' where 10 μL medium is added. Supernatant is collected after 2 h (IL-10 determination) and after 20 h (TNFα determination) of LPS triggering. […] The plate is then washed once with PBST (PBS+0.05% Tween20) and once with PBS followed by the addition of 100 μL of blocking buffer (1% Bovine Serum Albumin (BSA) -5% Sucrose) and plates are sealed and incubated for at least 4 h at RT. After washing the plate once with PBST and once with PBS, 40 μL of standard or sample are added (TNFα standard curve is prepared using a 1/2 serial dilution starting from 16000 pg/mL; dilutions are made in dilution buffer (PBS+1% BSA)). Plates are washed twice with PBST, and once with PBS, after which 35 μL of the detection antibody is added (final concentration 0.25 μg/mL diluted in dilution buffer) and plates are incubated for at least 2 h at RT. Plates are washed twice with PBST, and once with PBS, where after 35 μL of Strep-HRP conjugate (0.5 μg/mL final concentration diluted in dilution buffer) is added. […] Plates are washed twice with PBST, and once with PBS. Thereafter, 50 μL of luminol substrate is added to each well (prepared according to manufacturer's instructions), and incubated for 5 min at RT protected from light.

[2] = target: T1, SIK1 (Homo sapiens, UniProt P57059); assay: 33P radioactive kinase assay, SIK1; format: biochemical
T1 construct: purchased Carna Biosciences 02-131
T1 sequence (P57059 whole entry): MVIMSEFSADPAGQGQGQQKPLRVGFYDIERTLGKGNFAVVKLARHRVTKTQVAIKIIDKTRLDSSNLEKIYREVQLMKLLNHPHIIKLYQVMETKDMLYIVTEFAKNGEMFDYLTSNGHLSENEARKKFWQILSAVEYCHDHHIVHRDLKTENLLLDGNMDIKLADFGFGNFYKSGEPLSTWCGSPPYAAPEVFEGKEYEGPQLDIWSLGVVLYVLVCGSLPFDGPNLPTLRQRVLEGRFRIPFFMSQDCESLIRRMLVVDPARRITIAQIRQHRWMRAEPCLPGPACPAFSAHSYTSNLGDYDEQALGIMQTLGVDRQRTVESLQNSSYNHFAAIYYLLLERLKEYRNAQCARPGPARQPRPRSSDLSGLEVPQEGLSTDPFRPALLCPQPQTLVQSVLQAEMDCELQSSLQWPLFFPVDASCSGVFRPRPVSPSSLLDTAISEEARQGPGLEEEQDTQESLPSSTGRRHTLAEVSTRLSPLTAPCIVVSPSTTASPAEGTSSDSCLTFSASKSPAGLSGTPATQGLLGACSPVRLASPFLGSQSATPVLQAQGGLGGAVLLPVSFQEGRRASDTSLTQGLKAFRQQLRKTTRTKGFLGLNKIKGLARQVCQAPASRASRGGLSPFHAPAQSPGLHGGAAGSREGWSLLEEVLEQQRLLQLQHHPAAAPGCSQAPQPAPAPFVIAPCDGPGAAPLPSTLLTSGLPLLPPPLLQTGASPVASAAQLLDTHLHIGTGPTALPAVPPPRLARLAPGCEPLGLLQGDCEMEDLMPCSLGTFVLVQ
Method: (§1) The principle of the ^33P radioactive kinase assay consists in measuring the incorporated ^33P into the substrate AMARA peptide when phosphorylated by SIK1, SIK2 or SIK3 using [^33P]-g-ATP, which correlates with kinase activity.
(§2) The test compounds are prepared as a serial dilution of 10 point dose responses with 1/5 dilution steps in 100% DMSO starting from 2 mM highest concentration, diluted 1/20 in water and 5 μL is transferred to the assay plates (Greiner, Cat #651201).
(§3) 1% DMSO and 10 μM staurosporine final concentrations are used as negative and positive controls.
(§4) 11 μL of enzyme-substrate mixture is added on the assay plates. The reactions are started by adding 9 μL ATP mixture, consisting of non-labeled and ^33P-labeled ATP, on the assay plates.
(§5) The reactions are stopped by adding 25 μL phosphoric acid (150 mM) to the reactions.
(§6) The completely terminated kinase reactions are transferred using a harvester on pre-wetted UniFilter-96 plates (UniFilter-96 GF/B, PerkinElmer Inc., Cat #6005177).
(§7) After harvesting the kinase reactions, the filter plates are washed 6 times with phosphoric acid (75 mM). The back of the UniFilter-96 plates are sealed and 40 μL MicroScint-20 (PerkinElmer Inc., Cat #6013621) is added to each well. The top of the plates are sealed with TopSeal-A. Read-out is performed with a TopCount instrument (PerkinElmer Inc.).
(§8) Raw data are generated following the read-out performed on the TopCount, plotted to generate dose response curves to calculate percentage inhibition (PIN) and average IC50 for each SIK homologue which are reported in the table below.

[3] = target: T2, SIK3 (Homo sapiens, UniProt Q9Y2K2); assay: ADP-Glo kinase assay, SIK3; format: biochemical
T2 construct: purchased SignalChem S12-11G-100
T2 sequence (Q9Y2K2 59-365 limits assumed): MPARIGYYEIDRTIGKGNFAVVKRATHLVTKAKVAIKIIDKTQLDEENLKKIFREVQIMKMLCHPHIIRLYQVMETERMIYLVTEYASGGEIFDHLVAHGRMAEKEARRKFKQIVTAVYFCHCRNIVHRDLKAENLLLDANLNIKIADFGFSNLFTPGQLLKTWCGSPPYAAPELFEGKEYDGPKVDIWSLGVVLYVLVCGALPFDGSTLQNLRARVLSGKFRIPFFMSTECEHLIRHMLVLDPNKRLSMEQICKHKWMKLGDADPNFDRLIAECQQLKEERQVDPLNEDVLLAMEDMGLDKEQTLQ
Summary of the method: (§9)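 Luminescent ADP-formation read-out: enzyme–substrate mix + ATP, 120 min RT; ATP depletion 40 min RT; ADP→ATP conversion with luciferase/luciferin 30 min RT. Controls: 1% DMSO (negative), 10 μM staurosporine final (positive).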

[4] = target: T2, SIK3; assay: 33P radioactive kinase assay, SIK3; format: biochemical; details: 33P radioactive assay; AMARA 7 μM; 15 μM ATP; 80 min; average IC50
Method: as §1, §2, §3, §4, §5, §6, §7, §8

[5] = target: T1, SIK1; assay: ADP-Glo kinase assay, SIK1; format: biochemical
Summary of the method: as §9

[6] = target: T3, SIK2 (Homo sapiens, UniProt Q9H0K1); assay: 33P radioactive kinase assay, SIK2; format: biochemical; further: AMARA 5 µM, 10 µM ATP
T3 construct: purchased ThermoFisher Scientific PV4792
T3 sequence (Q9H0K1 whole entry): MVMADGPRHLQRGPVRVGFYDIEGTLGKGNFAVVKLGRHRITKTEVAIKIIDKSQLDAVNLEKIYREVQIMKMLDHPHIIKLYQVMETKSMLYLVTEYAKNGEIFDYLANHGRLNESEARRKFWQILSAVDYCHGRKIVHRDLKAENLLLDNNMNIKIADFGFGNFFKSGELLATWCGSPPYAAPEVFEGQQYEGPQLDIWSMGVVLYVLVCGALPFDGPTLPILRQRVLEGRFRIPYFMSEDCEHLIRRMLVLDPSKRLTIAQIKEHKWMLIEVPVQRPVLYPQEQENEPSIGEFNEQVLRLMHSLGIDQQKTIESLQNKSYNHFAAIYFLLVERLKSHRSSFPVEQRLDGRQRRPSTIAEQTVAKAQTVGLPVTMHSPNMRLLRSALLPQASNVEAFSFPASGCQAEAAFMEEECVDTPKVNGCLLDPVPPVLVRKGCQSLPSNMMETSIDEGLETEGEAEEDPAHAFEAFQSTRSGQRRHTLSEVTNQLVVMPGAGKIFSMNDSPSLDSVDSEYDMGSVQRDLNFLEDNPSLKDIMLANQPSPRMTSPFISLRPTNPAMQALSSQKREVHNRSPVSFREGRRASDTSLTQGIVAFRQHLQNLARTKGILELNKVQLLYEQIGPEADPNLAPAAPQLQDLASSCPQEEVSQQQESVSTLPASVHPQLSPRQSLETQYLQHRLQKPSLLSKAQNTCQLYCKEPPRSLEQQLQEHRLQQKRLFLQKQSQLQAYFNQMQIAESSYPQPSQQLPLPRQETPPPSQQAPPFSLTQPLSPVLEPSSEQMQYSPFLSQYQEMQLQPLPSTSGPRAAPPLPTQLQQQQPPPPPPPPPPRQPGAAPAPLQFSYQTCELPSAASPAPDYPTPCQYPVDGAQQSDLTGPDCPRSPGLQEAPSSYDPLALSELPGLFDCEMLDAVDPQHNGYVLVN
Method: as §1, §2, §3, §4, §5, §6, §7, §8

[7] = target: T3, SIK2; assay: ADP-Glo kinase assay, SIK2; format: biochemical
Summary of the method: as §9

Row | Structure (SMILES) | EC50 [1] | IC50 [2] | IC50 [3] | IC50 [4] | IC50 [5] | IC50 [6] | IC50 [7]
1 | COc1cc(-c2cnc3cc(C(C)(C)C#N)ccn23)cc(OC)c1C(=O)NCC(F)(F)F [Cpd 17, 4-[7-(1-cyano-1-methyl-ethyl)imidazo[1,2-a]pyridin-3-yl]-2,6-dimethoxy-N-(2,2,2-trifluoroethyl)benzamide] | 100 to 1000 nM | > 500 nM | 10 to 100 nM | 10 to 100 nM | > 500 nM | > 500 nM | > 500 nM
2 | COc1cc(-c2cnc3cc(C4CCN(C(=O)OC(C)(C)C)CC4)ccn23)cc(OC)c1C(=O)NCC(F)(F)F [Cpd 16, tert-butyl 4-[3-[3,5-dimethoxy-4-(2,2,2-trifluoroethylcarbamoyl)phenyl]imidazo[1,2-a]pyridin-7-yl]piperidine-1-carboxylate] | > 5000 nM | > 500 nM | – | 10 to 100 nM | – | 100 to 500 nM | –
3 | COc1cc(-c2cnc3cc(C4(C#N)CCC4)ccn23)cc(OC(F)F)c1C(=O)NC1CC1 [Cpd 34, 4-[7-(1-cyanocyclobutyl)imidazo[1,2-a]pyridin-3-yl]-N-cyclopropyl-2-(difluoromethoxy)-6-methoxy-benzamide] | 100 to 1000 nM | > 500 nM | 0.01 to 10 nM | 10 to 100 nM | > 500 nM | > 500 nM | 100 to 500 nM
4 | CCNC(=O)c1c(OC)cc(-c2cnc3cc(C(C)(C)C#N)ccn23)cc1OC [Cpd 30, 4-[7-(1-cyano-1-methyl-ethyl)imidazo[1,2-a]pyridin-3-yl]-N-ethyl-2,6-dimethoxy-benzamide] | – | > 500 nM | 10 to 100 nM | 100 to 500 nM | > 500 nM | > 500 nM | > 500 nM
5 | COc1cc(-c2cnc3cc(C4CCCN(C)C4)ccn23)cc(OC)c1C(=O)NCC(F)(F)F (stereo not shown) [Cpd 24, 2,6-dimethoxy-4-[7-(1-methyl-3-piperidyl)imidazo[1,2-a]pyridin-3-yl]-N-(2,2,2-trifluoroethyl)benzamide] | 1000 to 5000 nM | > 500 nM | 10 to 100 nM | 10 to 100 nM | > 500 nM | 100 to 500 nM | 100 to 500 nM
6 | COc1cc(-n2cnc3cc(C(C)(C)C#N)ccc32)cc(OC)c1C(=O)NCC(F)(F)F [Cpd 10, 4-[5-(1-cyano-1-methyl-ethyl)benzimidazol-1-yl]-2,6-dimethoxy-N-(2,2,2-trifluoroethyl)benzamide] | – | > 500 nM | 100 to 500 nM | 100 to 500 nM | > 500 nM | > 500 nM | > 500 nM
7 | COc1cc(-c2cnc3cc(C(C)(C)C#N)ccn23)cc(OC)c1C(=O)N1CC(F)(F)C1 [Cpd 18, 2-[3-[4-(3,3-difluoroazetidine-1-carbonyl)-3,5-dimethoxy-phenyl]imidazo[1,2-a]pyridin-7-yl]-2-methyl-propanenitrile] | – | > 500 nM | 10 to 100 nM | 10 to 100 nM | > 500 nM | > 500 nM | > 500 nM
8 | COc1cc(-c2cnc3cc(C(C)(C)C#N)ccn23)cc2c1C(=O)N(CC(F)(F)F)CC2 [Cpd 25, 2-[3-[8-methoxy-1-oxo-2-(2,2,2-trifluoroethyl)-3,4-dihydroisoquinolin-6-yl]imidazo[1,2-a]pyridin-7-yl]-2-methyl-propanenitrile] | 1000 to 5000 nM | > 500 nM | 10 to 100 nM | 10 to 100 nM | > 500 nM | > 500 nM | > 500 nM
9 | COc1cc(-c2cnc3cc(C(C)C#N)ccn23)cc(OC(F)F)c1C(=O)NC1CC1 (stereo not shown) [Cpd 26, 4-[7-(1-cyanoethyl)imidazo[1,2-a]pyridin-3-yl]-N-cyclopropyl-2-(difluoromethoxy)-6-methoxy-benzamide] | 100 to 1000 nM | > 500 nM | 0.01 to 10 nM | 10 to 100 nM | > 500 nM | 100 to 500 nM | 100 to 500 nM
10 | COc1cc(-c2cnc3cc(C(C)(C)C#N)ccn23)cc(OC)c1C(=O)NCC#N [Cpd 32, N-(cyanomethyl)-4-[7-(1-cyano-1-methyl-ethyl)imidazo[1,2-a]pyridin-3-yl]-2,6-dimethoxy-benzamide] | – | > 500 nM | 10 to 100 nM | 10 to 100 nM | > 500 nM | > 500 nM | > 500 nM
11 | COc1cc(-c2cnc3cc(C(C)(C)C#N)ccn23)cc2c1C(=O)NCC2 [Cpd 20, 2-[3-(8-methoxy-1-oxo-3,4-dihydro-2H-isoquinolin-6-yl)imidazo[1,2-a]pyridin-7-yl]-2-methyl-propanenitrile] | 1000 to 5000 nM | > 500 nM | 10 to 100 nM | 10 to 100 nM | > 500 nM | > 500 nM | > 500 nM
12 | COc1cc(-c2cnc3cc(C4CCN(C)CC4)ccn23)cc(OC)c1C(=O)NCC(F)(F)F [Cpd 22, 2,6-dimethoxy-4-[7-(1-methyl-4-piperidyl)imidazo[1,2-a]pyridin-3-yl]-N-(2,2,2-trifluoroethyl)benzamide] | – | > 500 nM | 10 to 100 nM | 10 to 100 nM | > 500 nM | 100 to 500 nM | 100 to 500 nM

— patent publication US12391679B2, “Benzamide-substituted bicyclic imidazo- and pyrazolo-fused -pyridine, -pyrimide, and -pyridazine compounds for treatment of inflammatory diseases” (ONCO3R Therapeutics BV, priority 2019, dated 2025)
